Reference: US20090246293A1 (priority 2008, published 2009)
Where two headings read alike, the source gives them in different places.

How the values were obtained:
[1] = test system: Plasmopara viticola (PLASVI); format: in vivo; conditions: for effect of Formulation I on the effectiveness of fungicides, PLASVI: Table 20
[2] = test system: Phytophthora infestans (PHYTIN); format: in vivo; conditions: for effect of Formulation I on the effectiveness of fungicides, PHYTIN: Table 20; for Reduction in percent disease, Formul. II: PHYTIN, fungicide with Formulation II at 100 ppm of attractant derivative, Table 22
[3] = test system: Pseudoperonospora cubensis (PSPECU); conditions: in vivo
[4] = test system: Pseudoperonospora cubensis; test: Drop-band treatment of cucumber leaves, then spray inoculation with zoospores (Examples 1-3); format: in vivo; conditions: isovaleraldehyde bisulfite adduct, sodium 100 ppm alone; 7 days
Protocol: The following examples were carried out on greenhouse and growth chamber experiments on cucumber plants. The cucumber plants were grown from seed in soil-free medium mix (Metro-Mix 360®) and maintained in a glasshouse with supplementary light sources to provide a 16 hour photoperiod at 24-29° C. until the plants had produced 1-2 true leaves. Plants were then trimmed to 1 true leaf, approximately 8 cm across by removing any additional leaves.
Referring below to Table 1, Dithane M45 and Dithane OS are standard commercial formulations. Isovaleraldehyde loaded onto PergoPak was prepared using the following procedure: a mixture of 1.35 g of PergoPak M (polyurea), 0.15 g of isovaleraldehyde and 8 mL of ether was stirred at room temperature for 10 min. The mixture was then concentrated by rotatory evaporation at room temperature under a slight vacuum to provide a solid that was air dried for an hour at room temperature and then bottled. All treatments were prepared by adding the appropriate amount of each treatment to distilled water to give the desired concentration of active ingredient. Dithane® M45 suspensions were initially prepared via serial dilution. Mancozeb/isovaleraldehyde solutions were prepared by adding a prepared isovaleraldehyde solution to a prepared mancozeb suspension. All solutions were vortexed and sonicated prior to treatment application to ensure that they were homogenous.
A sporangial suspension of Pseudoperonospora cubensis was made by collecting leaves with freshly sporulating lesions and washing them in distilled water, which was made up of equal volumes of chilled (4° C.) and tap distilled water (21° C.). The suspension was then left on the lab bench for 2 hours to allow the release of zoospores from the sporangia. After 2 hours the suspension was filtered through filter paper (“Whatman”, 12.5 cm, grade 113V) to remove any remaining sporangia and mycelial fragments. The zoospore concentration was determined and then adjusted to the desired concentration with distilled water.
For each example described below, an area 5 cm wide by 1 cm deep was initially marked on each cucumber leaf by placing a mark in each corner of the area. This was repeated on four separate plants to give four replicates for each treatment. Ten 15 microlitre drops were then applied to each leaf in two 5 drop bands (1 cm between each drop) and allowed to dry overnight. Subsequently a zoospore suspension of Pseudoperonospora cubensis (30,000 zoospores/mL) was sprayed with a hand-atomiser to the entire leaf until run-off. Plants were placed in a dew room (22° C. and 99% RH) for 24 hours then maintained in a growth room with supplementary light sources to provide a 14 hour photoperiod at 18° C. and 70% RH until disease assessment.
Assessment of the effectiveness of the treatment was done by visual infection within the banded area. The banded area was evaluated on a percentage scale (with 0% representing no infection and 100% representing infection of the entire area) after 5-7 days.

[5] = fungicide with Formulation I at 100 ppm, Table 19
[6] = PLASVI, fungicide with Formulation II at 100 ppm of attractant derivative, Table 22
[7] = fungicide with Formulation I at 100 ppm
[8] = fungicide with Formulation I at 100 ppm, Table 18
[9] = aldehyde derivative 500 ppm with mancozeb, Table 16

## COc1ccc(C(=CC(=O)N2CCOCC2)c2ccc(Cl)cc2)cc1OC [Dimethomorph]
[1]; [5]
  Reduction in percent disease PLASVI: xx (21-35% reduction in percent disease)
[2]; [5]
  Reduction in percent disease PHYTIN: x (0-20% reduction in percent disease)
[3]
  Reduction in percent disease PSPECU: x (key: x: 0-20% reduction in percent disease; xx: 21-35% reduction in percent disease; xxx: 36-50% reduction in percent disease; xxxx: >50% reduction in percent disease)

## CNC(=O)/C(=N/OC)c1ccccc1COc1cc(C)ccc1C [Dimoxystrobin]
[1]; [5]
  Reduction in percent disease PLASVI: x (0-20% reduction in percent disease)
[2]; [5]
  Reduction in percent disease PHYTIN: x (0-20% reduction in percent disease)
[3]
  Reduction in percent disease PSPECU: x (key: x: 0-20% reduction in percent disease; xx: 21-35% reduction in percent disease; xxx: 36-50% reduction in percent disease; xxxx: >50% reduction in percent disease)

## CCNc1nc(CC)c(C(=O)NC(C#N)c2cccs2)s1 (stereo not shown) [Ethaboxam, reference compound]
[1]; PLASVI, fungicide with Formulation I at 100 ppm, Table 21
  Reduction in percent disease, Formul. I: x (0-20% reduction in percent disease)
[1]; PLASVI, fungicide with Formulation II at 100 ppm, Table 21
  Reduction in percent disease, Formul. II: x (0-20% reduction in percent disease)
[1]; [5]
  Reduction in percent disease PLASVI: x (0-20% reduction in percent disease)
[2]; [5]
  Reduction in percent disease PHYTIN: x (0-20% reduction in percent disease)
[3]
  Reduction in percent disease, Formul. II: x (key: x: 0-20% reduction in percent disease; xx: 21-35% reduction in percent disease; xxx: 36-50% reduction in percent disease; xxxx: >50% reduction in percent disease)

## O=C(NCc1ncc(C(F)(F)F)cc1Cl)c1c(Cl)cccc1Cl [Fluopicolide]
[1]; [6]
  Reduction in percent disease, Formul. II: x (0-20% reduction in percent disease)
[2]; [7]
  effect of Formulation I on the effectiveness of fungicides, PHYTIN: xx (21-35% reduction in percent disease)
[3]
  effect of Formulation I on the effectiveness of fungicides, PSPECU: x (key: x: 0-20% reduction in percent disease; xx: 21-35% reduction in percent disease; xxx: 36-50% reduction in percent disease; xxxx: >50% reduction in percent disease)

## Cc1ccc(C(C)NC(=O)[C@@H](NC(=O)OC(C)C)C(C)C)cc1 (stereo partly shown) [Iprovalicarb]
[1]; [5]
  Reduction in percent disease PLASVI: xx (21-35% reduction in percent disease)
[2]; [5]
  Reduction in percent disease PHYTIN: x (0-20% reduction in percent disease)
[3]
  Reduction in percent disease PSPECU: x (key: x: 0-20% reduction in percent disease; xx: 21-35% reduction in percent disease; xxx: 36-50% reduction in percent disease; xxxx: >50% reduction in percent disease)

## CC(C)CC(O)S(=O)(=O)[O-].[Na+] (stereo not shown) [Isovaleraldehyde bisulfite adduct, sodium]
[4]
  Percent infection of Pseudoperonospora cubensis on cucumbers: 45%

## C#CCOc1ccc(CCNC(=O)C(OCC#C)c2ccc(Cl)cc2)cc1OC (stereo not shown) [Mandipropamid]
[1]; [5]
  Reduction in percent disease PLASVI: xx (21-35% reduction in percent disease)
[2]; [5]
  Reduction in percent disease PHYTIN: x (0-20% reduction in percent disease)
[3]
  Reduction in percent disease PSPECU: x (key: x: 0-20% reduction in percent disease; xx: 21-35% reduction in percent disease; xxx: 36-50% reduction in percent disease; xxxx: >50% reduction in percent disease)

## COCC(=O)N(c1c(C)cccc1C)[C@H](C)C(=O)OC [Mefenoxam]
[1]; [6]
  Reduction in percent disease, Formul. II: xx (21-35% reduction in percent disease)
[1]; [7]
  effect of Formulation I on the effectiveness of fungicides, PLASVI: x (0-20% reduction in percent disease)
[2]
  Reduction in percent disease, Formul. II: xx (21-35% reduction in percent disease)
[2]; [8]
  Reduction in percent disease PHYTIN: xxxx (>50% reduction in percent disease)
[2]; [7]
  effect of Formulation I on the effectiveness of fungicides, PHYTIN: xx (21-35% reduction in percent disease)
[3]
  Reduction in percent disease, Formul. II: x (key: x: 0-20% reduction in percent disease; xx: 21-35% reduction in percent disease; xxx: 36-50% reduction in percent disease; xxxx: >50% reduction in percent disease)

## COCC(=O)N(c1c(C)cccc1C)C(C)C(=O)OC (stereo not shown) [Metalaxyl]
[1]; [7]
  effect of Formulation I on the effectiveness of fungicides, PLASVI: x (0-20% reduction in percent disease)
[2]; [7]
  effect of Formulation I on the effectiveness of fungicides, PHYTIN: xx (21-35% reduction in percent disease)
[3]
  effect of Formulation I on the effectiveness of fungicides, PSPECU: x (key: x: 0-20% reduction in percent disease; xx: 21-35% reduction in percent disease; xxx: 36-50% reduction in percent disease; xxxx: >50% reduction in percent disease)

## CO/C=C(/C(=O)OC)c1ccccc1COc1cccc(C(F)(F)F)n1 [Picoxystrobin]
[1]; [8]
  Reduction in percent disease PLASVI: xxx (36-50% reduction in percent disease)
[2]
  Reduction in percent disease, Formul. II: x (0-20% reduction in percent disease)
[2]; [8]
  Reduction in percent disease PHYTIN: x (0-20% reduction in percent disease)
[3]
  Reduction in percent disease, Formul. II: x (key: x: 0-20% reduction in percent disease; xx: 21-35% reduction in percent disease; xxx: 36-50% reduction in percent disease; xxxx: >50% reduction in percent disease)

## CCCOC(=O)NCCCN(C)C [Propamocarb]
[1]; [8]
  Reduction in percent disease PLASVI: x (0-20% reduction in percent disease)
[2]; [8]
  Reduction in percent disease PHYTIN: xx (21-35% reduction in percent disease)
[3]
  Reduction in percent disease PSPECU: x (key: x: 0-20% reduction in percent disease; xx: 21-35% reduction in percent disease; xxx: 36-50% reduction in percent disease; xxxx: >50% reduction in percent disease)

## condensation product of urea and 2- methylbutyraldehyde [Compound Q]
[1]; [9]
  Reduction in percent disease PLASVI: x (0-20% reduction in percent disease)
[2]; [9]
  Reduction in percent disease PHYTIN: x (0-20% reduction in percent disease)
[3]
  Reduction in percent disease PSPECU: x (key: x: 0-20% reduction in percent disease; xx: 21-35% reduction in percent disease; xxx: 36-50% reduction in percent disease; xxxx: >50% reduction in percent disease)

## condensation product of urea and 3,3- dimethylbutyraldehyde [Compound R]
[1]; [9]
  Reduction in percent disease PLASVI: x (0-20% reduction in percent disease)
[2]; [9]
  Reduction in percent disease PHYTIN: xx (21-35% reduction in percent disease)
[3]
  Reduction in percent disease PSPECU: x (key: x: 0-20% reduction in percent disease; xx: 21-35% reduction in percent disease; xxx: 36-50% reduction in percent disease; xxxx: >50% reduction in percent disease)
